Values quoted from earlier work, collected in patent US12514830B2, “Idebenone for the treatment of Acute Respiratory Distress Syndrome (ARDS) in patients diagnosed with a coronavirus infection” (BEMIDO SA, priority 2020, dated 2026).

Test system: patients with Duchenne muscular dystrophy (DMD)
Conditions: long-term treatment, for up to 6 years, real-world setting

COC1=C(OC)C(=O)C(CCCCCCCCCCO)=C(C)C1=O [idebenone, 2-(10-hydroxydecyl)-5,6-dimethoxy-3-methyl-cyclohexa-2,5-diene-1,4-dione]
rate of respiratory function loss: consistently reduced the rate of respiratory function loss
